*1 amine or outer side, *2 acyl side, *3 side chain or, on linkers, in order; H or OH if unused. Where a SMILES comes first, the peptide text is derived from it. Bridges are numbered along the chain shown (N, C = ends). Roman numbers before positions name the chains, in order. [ ]: non-standard residue; d: D form. Phe(4-CF3) = N[C@@H](Cc1ccc(C(F)(F)F)cc1)C(=O)O; 1Nal = N[C@@H](Cc1cccc2ccccc12)C(=O)O; Diglycolyl = O=C(COCC(=O)[*:2])[*:1]; NMeR = CN[C@@H](CCCNC(=N)N)C(=O)O; Tic = O=C(O)[C@@H]1Cc2ccccc2CN1; X1 = O=C(c1ccccc1C[*:2])[*:1]; Pen = CC(C)(S)[C@H](N)C(=O)O
target: T1, RPMI 8866 cells (Homo sapiens, UniProt P13612+P26010); assay: α4β7-MAdCAM Cell Adhesion Assay; type: cell-based; details: thioether monomer peptides, Table 6; read-out: Cell-Adhesion A4B7
T1 sequence (P13612 34-1032): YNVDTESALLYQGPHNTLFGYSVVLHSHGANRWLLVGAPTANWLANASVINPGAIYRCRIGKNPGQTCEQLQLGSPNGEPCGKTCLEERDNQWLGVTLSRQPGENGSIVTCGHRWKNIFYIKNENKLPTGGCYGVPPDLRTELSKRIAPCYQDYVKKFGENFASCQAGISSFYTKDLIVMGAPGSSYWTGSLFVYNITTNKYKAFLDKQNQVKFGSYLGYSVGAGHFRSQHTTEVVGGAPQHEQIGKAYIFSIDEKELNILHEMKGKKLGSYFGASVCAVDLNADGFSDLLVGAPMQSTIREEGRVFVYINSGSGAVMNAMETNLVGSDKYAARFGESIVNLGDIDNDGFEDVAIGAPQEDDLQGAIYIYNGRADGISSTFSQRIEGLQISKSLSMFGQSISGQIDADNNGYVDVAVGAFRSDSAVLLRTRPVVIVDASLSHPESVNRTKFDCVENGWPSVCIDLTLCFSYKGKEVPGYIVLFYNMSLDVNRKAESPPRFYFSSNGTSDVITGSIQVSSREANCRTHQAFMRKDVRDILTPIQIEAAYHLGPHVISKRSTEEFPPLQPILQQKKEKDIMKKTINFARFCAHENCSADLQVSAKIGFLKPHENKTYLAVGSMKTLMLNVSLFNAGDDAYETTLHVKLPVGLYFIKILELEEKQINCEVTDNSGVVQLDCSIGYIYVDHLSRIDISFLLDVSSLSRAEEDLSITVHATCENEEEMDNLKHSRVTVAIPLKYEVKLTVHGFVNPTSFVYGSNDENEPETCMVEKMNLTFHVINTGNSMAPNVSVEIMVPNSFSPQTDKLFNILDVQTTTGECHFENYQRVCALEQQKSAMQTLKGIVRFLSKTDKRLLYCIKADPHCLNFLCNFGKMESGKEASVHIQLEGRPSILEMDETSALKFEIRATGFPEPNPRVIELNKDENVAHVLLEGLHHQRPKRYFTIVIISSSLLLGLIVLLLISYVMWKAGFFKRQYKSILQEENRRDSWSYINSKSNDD
T1 sequence (P26010 20-798): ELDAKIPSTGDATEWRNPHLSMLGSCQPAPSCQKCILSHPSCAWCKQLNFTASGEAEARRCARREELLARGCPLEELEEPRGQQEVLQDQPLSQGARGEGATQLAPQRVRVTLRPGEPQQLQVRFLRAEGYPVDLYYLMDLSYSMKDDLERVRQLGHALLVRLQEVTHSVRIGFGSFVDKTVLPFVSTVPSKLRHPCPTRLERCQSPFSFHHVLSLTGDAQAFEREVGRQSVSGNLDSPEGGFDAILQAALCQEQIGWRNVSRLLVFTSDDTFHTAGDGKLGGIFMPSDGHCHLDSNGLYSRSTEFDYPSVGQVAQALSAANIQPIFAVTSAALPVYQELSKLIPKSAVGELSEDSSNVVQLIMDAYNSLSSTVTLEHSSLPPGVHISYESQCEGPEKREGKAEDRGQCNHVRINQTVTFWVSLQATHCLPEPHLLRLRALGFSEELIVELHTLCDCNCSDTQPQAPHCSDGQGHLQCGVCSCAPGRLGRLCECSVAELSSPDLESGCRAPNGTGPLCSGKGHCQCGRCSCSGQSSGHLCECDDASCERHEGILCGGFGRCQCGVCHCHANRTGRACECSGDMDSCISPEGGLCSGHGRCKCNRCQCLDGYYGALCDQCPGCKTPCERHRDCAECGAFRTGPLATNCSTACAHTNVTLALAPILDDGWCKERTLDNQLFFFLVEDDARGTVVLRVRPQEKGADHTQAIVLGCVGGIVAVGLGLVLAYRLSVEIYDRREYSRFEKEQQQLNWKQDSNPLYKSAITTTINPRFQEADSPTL
Outline: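 Peptide inhibition of adhesion measured with MAdCAM-1/Fc chimera immobilised at 200 ng/well and MnCl2-activated (1 mM) RPMI 8866 cells, 30-45 min at 37° C. Adherent cells remaining after three washes detected by MTT reduction at 570 nm, corrected for no-cell wells, giving dose response.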

SMILES	IC50 [nM]
CC(=O)NCCCC[C@@H](NC(=O)[C@@H](CCC(=O)O)NC(=O)[C@H](Cc1ccc(O)cc1)NC(=O)[C@H]1NC(=O)[C@H](CC(C)C)NC(=O)[C@H]([C@@H](C)O)NC(=O)[C@H](CC(=O)O)NC(=O)[C@H](CO)NC(=O)[C@H](CCCNC(=N)N)N(C)C(=O)c2ccccc2CSC1(C)C)C(N)=O [compound 91] (HELM PEPTIDE1{[meR].S.D.T.L.[Pen].Y.[dE].[dK].[am]}|PEPTIDE2{[ac]}|CHEM1{[O=C(c1ccccc1C[*:2])[*:1]]}$PEPTIDE1,PEPTIDE2,9:R3-1:R2|PEPTIDE1,CHEM1,1:R1-1:R1|PEPTIDE1,CHEM1,6:R3-1:R2$$$V2.0)	100 to 1000
CC(=O)NCCCC[C@@H](NC(=O)[C@H](CCC(=O)O)NC(=O)[C@H](Cc1c[nH]c2ccccc12)NC(=O)[C@H]1NC(=O)[C@H](CC(C)C)NC(=O)[C@H]([C@@H](C)O)NC(=O)[C@H](CC(=O)O)NC(=O)[C@H](CO)NC(=O)[C@H](CCCNC(=N)N)N(C)C(=O)c2ccccc2CSC1(C)C)C(N)=O [compound 80] (HELM PEPTIDE1{[meR].S.D.T.L.[Pen].W.E.[dK].[am]}|PEPTIDE2{[ac]}|CHEM1{[O=C(c1ccccc1C[*:2])[*:1]]}$PEPTIDE1,PEPTIDE2,9:R3-1:R2|PEPTIDE1,CHEM1,1:R1-1:R1|PEPTIDE1,CHEM1,6:R3-1:R2$$$V2.0)	25 to 100
CC(C)C[C@@H]1NC(=O)[C@H]([C@@H](C)O)NC(=O)[C@H](CC(=O)O)NC(=O)[C@H](CO)NC(=O)[C@H](CCCNC(=N)N)N(C)C(=O)c2ccccc2CSC(C)(C)[C@@H](C(=O)N[C@@H](Cc2c[nH]c3ccccc23)C(=O)N[C@@H](CCC(=O)O)C(=O)N[C@@H](CN)C(N)=O)NC1=O [compound 92] (HELM PEPTIDE1{[meR].S.D.T.L.[Pen].W.E.[NC[C@H](N[*:1])C(=O)[*:2]].[am]}|CHEM1{[O=C(c1ccccc1C[*:2])[*:1]]}$PEPTIDE1,CHEM1,1:R1-1:R1|PEPTIDE1,CHEM1,6:R3-1:R2$$$V2.0)	25 to 100
CC(C)C[C@@H]1NC(=O)[C@H]([C@@H](C)O)NC(=O)[C@H](CC(=O)O)NC(=O)[C@H](CO)NC(=O)[C@H](CCCNC(=N)N)N(C)C(=O)c2ccccc2CSC(C)(C)[C@@H](C(=O)N[C@@H](Cc2c[nH]c3ccccc23)C(=O)N[C@@H](CCC(=O)O)C(N)=O)NC1=O [compound 96] (HELM PEPTIDE1{[meR].S.D.T.L.[Pen].W.E.[am]}|CHEM1{[O=C(c1ccccc1C[*:2])[*:1]]}$PEPTIDE1,CHEM1,1:R1-1:R1|PEPTIDE1,CHEM1,6:R3-1:R2$$$V2.0)	100 to 1000

same assay, conditions: thioether peptide dimers, Table 7; read-out: Cell-Adhesion A4B7

SMILES	IC50 [nM]
CC(C)C[C@@H]1NC(=O)[C@H]([C@@H](C)O)NC(=O)[C@H](CC(=O)O)NC(=O)[C@H](CO)NC(=O)[C@H](CCCNC(=N)N)N(C)C(=O)c2ccccc2CSC[C@@H](C(=O)N2Cc3ccccc3C[C@H]2C(=O)N[C@H](CCC(=O)O)C(=O)N[C@H](CCCCNC(=O)COCC(=O)NCCCC[C@@H](NC(=O)[C@@H](CCC(=O)O)NC(=O)[C@@H]2Cc3ccccc3CN2C(=O)[C@@H]2CSCc3ccccc3C(=O)N(C)[C@@H](CCCNC(=N)N)C(=O)N[C@@H](CO)C(=O)N[C@@H](CC(=O)O)C(=O)N[C@@H]([C@@H](C)O)C(=O)N[C@@H](CC(C)C)C(=O)N2)C(=O)O)C(=O)O)NC1=O [compound 207] (I: [NMeR]SDTLC[Tic][dE][dK]-OH / II: [NMeR]SDTLC[Tic][dE][dK]-OH; linker I:9-II:9 via Diglycolyl; linker I:N-I:6, II:N-II:6 via X1)	< 25
CC(C)C[C@@H]1NC(=O)[C@H]([C@@H](C)O)NC(=O)[C@H](CC(=O)O)NC(=O)[C@H](CO)NC(=O)[C@H](CCCNC(=N)N)N(C)C(=O)c2ccccc2CSC(C)(C)[C@@H](C(=O)N[C@@H](Cc2c[nH]c3ccccc23)C(=O)N[C@H](CCC(=O)O)C(=O)N[C@H](CCCCNC(=O)COCC(=O)NCCCC[C@@H](NC(=O)[C@@H](CCC(=O)O)NC(=O)[C@H](Cc2c[nH]c3ccccc23)NC(=O)[C@H]2NC(=O)[C@H](CC(C)C)NC(=O)[C@H]([C@@H](C)O)NC(=O)[C@H](CC(=O)O)NC(=O)[C@H](CO)NC(=O)[C@H](CCCNC(=N)N)N(C)C(=O)c3ccccc3CSC2(C)C)C(=O)O)C(=O)O)NC1=O [compound 209] (I: [NMeR]SDTL[Pen]W[dE][dK]-OH / II: [NMeR]SDTL[Pen]W[dE][dK]-OH; linker I:9-II:9 via Diglycolyl; linker I:N-I:6, II:N-II:6 via X1)	< 25
CC(C)C[C@@H]1NC(=O)[C@H]([C@@H](C)O)NC(=O)[C@H](CC(=O)O)NC(=O)[C@H](CO)NC(=O)[C@H](CCCNC(=N)N)N(C)C(=O)c2ccccc2CSC(C)(C)[C@@H](C(=O)N[C@@H](Cc2cccc3ccccc23)C(=O)N[C@@H](CCC(=O)O)C(=O)N[C@H](CCCCNC(=O)COCC(=O)NCCCC[C@@H](NC(=O)[C@H](CCC(=O)O)NC(=O)[C@H](Cc2cccc3ccccc23)NC(=O)[C@H]2NC(=O)[C@H](CC(C)C)NC(=O)[C@H]([C@@H](C)O)NC(=O)[C@H](CC(=O)O)NC(=O)[C@H](CO)NC(=O)[C@H](CCCNC(=N)N)N(C)C(=O)c3ccccc3CSC2(C)C)C(N)=O)C(N)=O)NC1=O [compound 167] (I: [NMeR]SDTL[Pen][1Nal]E[dK]-NH2 / II: [NMeR]SDTL[Pen][1Nal]E[dK]-NH2; linker I:9-II:9 via Diglycolyl; linker I:N-I:6, II:N-II:6 via X1)	< 25
CC(C)C[C@@H]1NC(=O)[C@H]([C@@H](C)O)NC(=O)[C@H](CC(=O)O)NC(=O)[C@H](CO)NC(=O)[C@H](CCCNC(=N)N)N(C)C(=O)c2ccccc2CSC(C)(C)[C@@H](C(=O)N[C@@H](Cc2ccc(C(F)(F)F)cc2)C(=O)N[C@@H](CCC(=O)O)C(=O)N[C@H](CCCCNC(=O)COCC(=O)NCCCC[C@@H](NC(=O)[C@H](CCC(=O)O)NC(=O)[C@H](Cc2ccc(C(F)(F)F)cc2)NC(=O)[C@H]2NC(=O)[C@H](CC(C)C)NC(=O)[C@H]([C@@H](C)O)NC(=O)[C@H](CC(=O)O)NC(=O)[C@H](CO)NC(=O)[C@H](CCCNC(=N)N)N(C)C(=O)c3ccccc3CSC2(C)C)C(N)=O)C(N)=O)NC1=O [compound 166] (I: [NMeR]SDTL[Pen][Phe(4-CF3)]E[dK]-NH2 / II: [NMeR]SDTL[Pen][Phe(4-CF3)]E[dK]-NH2; linker I:9-II:9 via Diglycolyl; linker I:N-I:6, II:N-II:6 via X1)	< 25
CC(C)C[C@@H]1NC(=O)[C@H]([C@@H](C)O)NC(=O)[C@H](CC(=O)O)NC(=O)[C@H](CO)NC(=O)[C@H](CCCNC(=N)N)N(C)C(=O)c2ccccc2CSC[C@@H](C(=O)N2Cc3ccccc3C[C@H]2C(=O)N[C@H](CCC(=O)O)C(=O)N[C@H](CCCCNC(=O)COCC(=O)NCCCC[C@@H](NC(=O)[C@@H](CCC(=O)O)NC(=O)[C@@H]2Cc3ccccc3CN2C(=O)[C@@H]2CSCc3ccccc3C(=O)N(C)[C@@H](CCCNC(=N)N)C(=O)N[C@@H](CO)C(=O)N[C@@H](CC(=O)O)C(=O)N[C@@H]([C@@H](C)O)C(=O)N[C@@H](CC(C)C)C(=O)N2)C(N)=O)C(N)=O)NC1=O [compound 184] (I: [NMeR]SDTLC[Tic][dE][dK]-NH2 / II: [NMeR]SDTLC[Tic][dE][dK]-NH2; linker I:9-II:9 via Diglycolyl; linker I:N-I:6, II:N-II:6 via X1)	< 25

From patent US20260217767A1, “NOVEL A4B7 THIOETHER PEPTIDE DIMER ANTAGONISTS” (Protagonist Therapeutics, Inc., priority 2014, published 2026)
